Measured values reported in publication PMC12299904, “Purine–Hydrazone Scaffolds as Potential Dual EGFR/HER2 Inhibitors” (Pharmaceuticals, 2025).
Several values for one entry are separate records, joined by “and”; a condition that tells them apart may be missing. Equal values may be shown once. Entries after “also recorded” stand apart in the source; their conditions may differ. Read-outs that look alike come from different tables or passages of the source. One block for each molecule: values may come before it.

What was measured:
SKBR-3 cells = experiment: In vitro cytotoxicity assay (MTT), SKBR-3; type: cell-based, human; conditions: for IC50: MTT, 48 h, mean ± SD, three experiments; for Selectivity index (SI), SKBR-3: IC50 against MRC-5/IC50 against SKBR-3
Method: (§1) The selected cell lines include A549, a lung cancer cell line that is characterized by its high expression of EGFR; SKOV-3, an ovarian cancer cell line, selected for its overexpression of both EGFR and HER2; and the breast cancer cell line (SKBR-3), characterized by HER2 overexpression.
(§2) Cells were passaged regularly at around 80% confluency using […] and maintained in 75 cm^2 flasks at 37 °C in a humidified atmosphere containing 5% CO2.
(§3) Approximately 10 × 10^3 cells were seeded per well of the 96-well plates using drug-free media and incubated for 24 h. […] After 48 h of drug exposure, the supernatant was aspirated, and the cells were washed with 100 μL of PBS. The MTT assay was performed by creating a stock solution of MTT at a concentration of 5 mg/mL in PBS. From this stock, a solution of MTT in the cell culture media was prepared to achieve a final concentration of 0.5 mg/mL. […] The MTT solution was thereafter removed, and the generated formazan crystals were dissolved by adding 100 μL of propanol/DMSO (50:50) per well. Absorbance was measured at 570 nm, and IC50 values for each compound were calculated by comparison against negative untreated controls.

HER2 = molecular target: T1, HER2 (Homo sapiens, UniProt P04626); experiment: In vitro enzyme inhibition assay, HER2 Kinase Assay Kit (BPS Bioscience); type: biochemical; conditions: three independent experiments; read-out: Protein Kinase Inhibition IC50, HER2
T1 construct: purchased BPS Bioscience 40721

A2780 cells = experiment: In vitro cytotoxicity assay (MTT), A2780; type: cell-based; conditions: Homo sapiens, 48 h, read-out: percentage of cell viability, A2780
EGFR = molecular target: T2, EGFR (Homo sapiens, UniProt P00533); experiment: In vitro enzyme inhibition assay, EGFR Kinase Assay Kit (BPS Bioscience); type: biochemical; conditions: three independent experiments; read-out: Protein Kinase Inhibition IC50, EGFR
T2 construct: purchased BPS Bioscience 40321

[1] = tested on: A549, SKOV-3, A2780, SKBR-3 cells; experiment: MTT assay, ranges stated over several cell lines; type: cell-based, human; conditions: for viability at 10 µM: Homo sapiens, 48 h, A549 and SKOV-3, read-out: cell viability range for A549 and SKOV-3
Method: as §1, §2, §3

SKOV-3 cells = experiment: In vitro cytotoxicity assay (MTT), SKOV-3; type: cell-based, human; conditions: for IC50 / viability at 10 µM: MTT, 48 h; for IC50: mean ± SD, three experiments; for viability at 10 µM: SK-OV-3, read-out: percentage of cell viability, SKOV-3; for Selectivity index (SI), SKOV-3: IC50 against MRC-5/IC50 against SKOV-3
Method: as §1, §2, §3

[2] = In vitro cytotoxicity assay (MTT), normal cell line MRC-5; type: cell-based; conditions: MRC-5 normal embryonic lung cells, normal human embryonic lung cell line, mean ± SD
Method: as §2, §3

A549 cells [3] = experiment: In vitro cytotoxicity assay (MTT), A549; conditions: for IC50: mean ± SD, three experiments; for viability at 10 µM: read-out: percentage of cell viability, A549; for Selectivity index (SI), A549: IC50 against MRC-5/IC50 against A549
Method: as §1, §2, §3

A549 cells [4] = experiment: Apoptosis analysis (Annexin V-FITC/PI, flow cytometry); type: cell-based, human; conditions: A549, IC50 concentration, 24 h; for Apoptosis, Early / Apoptosis, Late / Necrosis: mean ± SD, % printed in text only
Method: Briefly, in flat-bottom 6-well plates, a total of 3 × 10^5 A549 cells were seeded per well and maintained at 37 °C for 24 h in a CO2 humidified atmosphere. Next, the cells were subjected to treatment with the equipotent concentration (1xIC50) of the tested compounds in the cell culture media. Following a 24 h incubation period, the supernatant was removed by suction, and attached cells were washed with PBS and collected using trypsin. Following the quenching of trypsin with culture media, the cells were resuspended as a single cell suspension in Annexin V binding buffer with 1% (v/v) propidium iodide and 1% (v/v) Annexin V-FITC. Negative (untreated) control samples were also included in the experiment. The samples were analyzed using flow cytometry, reading PI at Em. 617 nm, Ex. 535 nm, and Annexin-V-FITC at Em. 520 nm, Ex. 488 nm, while collecting 20,000 events/sample.

A549 cells [5] = experiment: Cell cycle assay (PI, flow cytometry); type: cell-based, human; conditions: A549, IC50 concentration; for Cell cycle comment / DNA Content (%) %G0–G1 / DNA Content (%) %G2/M / DNA Content (%) %S: 24 h; for DNA Content (%) %G0–G1 / DNA Content (%) %G2/M / DNA Content (%) %S: mean ± SD; for Cell Cycle Distribution Index (CDI): CDI = (G2/M + S)/(G0–G1)
Method: In a flat-bottom 6-well plate, 3 × 10^5 A549 cells were seeded per well and incubated at 37 °C for 24 h to allow attachment. […] Following a 24 h incubation period, the supernatant was removed by suction, and adherent cells were washed with PBS and collected with trypsin. Additionally, negative control (untreated) samples were also prepared. The cells were resuspended in 2 mL of 80% v/v of cold methanol for 45 min to achieve fixation. After centrifugation, the methanol was discarded, and the resulting cell pellets were washed and stained at room temperature for 30 min in the dark using propidium iodide PI (10% v/v of a 1 mg/mL stock solution in PBS) and RNAse (15% v/v of a 1 mg/mL stock solution in PBS). The cells were analyzed using flow cytometry, reading histograms in the red channel adjusted to PI (Em. 617 nm, Ex. 535 nm).

[6] = Homo sapiens, A549, 48 h, read-out: Cytotoxicity (IC50), A549, MTT, 48 h

T1 sequence (P04626 23-1255): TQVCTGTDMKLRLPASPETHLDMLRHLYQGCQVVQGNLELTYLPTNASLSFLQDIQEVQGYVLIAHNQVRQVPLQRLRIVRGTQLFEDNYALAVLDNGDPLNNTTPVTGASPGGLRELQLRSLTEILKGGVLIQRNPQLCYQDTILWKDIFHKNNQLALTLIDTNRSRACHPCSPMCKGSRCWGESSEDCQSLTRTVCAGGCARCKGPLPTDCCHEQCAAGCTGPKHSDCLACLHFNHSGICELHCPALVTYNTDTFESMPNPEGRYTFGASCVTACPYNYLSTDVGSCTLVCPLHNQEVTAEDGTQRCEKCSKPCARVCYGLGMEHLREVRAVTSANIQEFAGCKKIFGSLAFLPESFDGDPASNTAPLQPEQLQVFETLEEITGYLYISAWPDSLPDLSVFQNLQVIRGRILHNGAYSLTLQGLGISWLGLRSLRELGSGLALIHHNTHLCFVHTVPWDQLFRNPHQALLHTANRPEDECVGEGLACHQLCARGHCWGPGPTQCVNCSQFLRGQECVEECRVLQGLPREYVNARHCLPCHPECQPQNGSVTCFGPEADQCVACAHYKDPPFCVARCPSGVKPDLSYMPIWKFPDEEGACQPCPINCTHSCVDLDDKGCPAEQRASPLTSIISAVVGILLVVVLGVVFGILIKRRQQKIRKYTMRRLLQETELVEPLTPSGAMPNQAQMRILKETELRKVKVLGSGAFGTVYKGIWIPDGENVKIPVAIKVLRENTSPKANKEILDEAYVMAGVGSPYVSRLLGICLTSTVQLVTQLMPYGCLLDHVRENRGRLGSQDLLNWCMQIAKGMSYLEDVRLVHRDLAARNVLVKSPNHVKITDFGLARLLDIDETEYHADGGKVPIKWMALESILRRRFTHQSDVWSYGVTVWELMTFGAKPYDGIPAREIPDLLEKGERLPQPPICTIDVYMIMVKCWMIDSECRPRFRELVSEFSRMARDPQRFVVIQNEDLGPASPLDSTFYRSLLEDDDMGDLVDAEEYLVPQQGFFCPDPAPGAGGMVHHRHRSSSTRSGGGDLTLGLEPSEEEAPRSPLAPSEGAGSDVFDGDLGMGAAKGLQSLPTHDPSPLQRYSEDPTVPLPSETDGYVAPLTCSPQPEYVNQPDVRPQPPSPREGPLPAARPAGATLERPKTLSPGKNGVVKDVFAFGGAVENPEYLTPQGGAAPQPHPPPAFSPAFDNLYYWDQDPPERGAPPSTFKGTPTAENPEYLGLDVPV
T2 sequence (P00533 25-1210): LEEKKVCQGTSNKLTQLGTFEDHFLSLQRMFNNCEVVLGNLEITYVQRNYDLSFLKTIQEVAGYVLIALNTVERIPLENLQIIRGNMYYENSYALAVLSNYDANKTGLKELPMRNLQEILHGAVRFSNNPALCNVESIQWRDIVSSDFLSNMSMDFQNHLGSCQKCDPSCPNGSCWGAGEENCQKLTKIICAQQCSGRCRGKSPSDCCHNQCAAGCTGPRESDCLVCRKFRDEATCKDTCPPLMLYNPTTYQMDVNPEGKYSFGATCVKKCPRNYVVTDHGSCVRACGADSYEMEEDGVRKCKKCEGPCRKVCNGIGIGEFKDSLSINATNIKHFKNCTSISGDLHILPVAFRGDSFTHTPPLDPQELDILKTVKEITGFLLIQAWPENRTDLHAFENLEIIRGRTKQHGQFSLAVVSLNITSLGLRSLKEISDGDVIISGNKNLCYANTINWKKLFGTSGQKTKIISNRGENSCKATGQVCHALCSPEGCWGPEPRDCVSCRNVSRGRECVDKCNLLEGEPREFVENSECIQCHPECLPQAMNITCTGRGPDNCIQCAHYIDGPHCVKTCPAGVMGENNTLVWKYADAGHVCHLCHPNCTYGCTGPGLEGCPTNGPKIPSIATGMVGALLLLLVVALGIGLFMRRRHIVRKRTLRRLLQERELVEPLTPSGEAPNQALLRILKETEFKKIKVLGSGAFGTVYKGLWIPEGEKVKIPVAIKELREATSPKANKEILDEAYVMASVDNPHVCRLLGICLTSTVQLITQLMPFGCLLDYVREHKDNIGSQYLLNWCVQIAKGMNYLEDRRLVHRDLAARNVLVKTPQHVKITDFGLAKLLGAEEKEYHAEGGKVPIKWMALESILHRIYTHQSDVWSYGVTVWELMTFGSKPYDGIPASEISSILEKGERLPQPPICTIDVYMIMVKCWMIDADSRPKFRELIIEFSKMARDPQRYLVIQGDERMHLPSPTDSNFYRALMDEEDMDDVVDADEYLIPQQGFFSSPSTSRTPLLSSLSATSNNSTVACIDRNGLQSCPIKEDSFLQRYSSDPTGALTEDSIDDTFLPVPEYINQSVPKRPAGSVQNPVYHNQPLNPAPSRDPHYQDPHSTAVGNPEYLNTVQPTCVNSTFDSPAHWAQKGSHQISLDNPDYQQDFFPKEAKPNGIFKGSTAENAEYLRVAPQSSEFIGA

IC50 (HER2): 0.045 ± 0.01 µM
IC50 (EGFR): 0.06 µM and 0.062 µM
Compound: O=C(N/N=C/c1cccc(C(F)(F)F)c1)c1ccc(Nc2ncnc3c2ncn3C2CCCC2)cc1 [16b, (E)-4-((9-cyclopentyl-9H-purin-6-yl)amino)-N′-(3-(trifluoromethyl)benzylidene) benzohydrazide]
IC50 (SKBR-3 cells; Homo sapiens, SK-BR-3, 48 h): 4.3 ± 0.94 µM
Selectivity index (SI), SKBR-3 (SKBR-3 cells): 8.51
IC50 (SKBR-3 cells): 4.31 ± 0.948 µM
viability at 10 µM (A2780 cells): 16%
Selectivity index (SI) range across cancer cell lines ([1]; IC50 MRC-5/IC50 cancer cell line, A549, SKOV-3, SKBR-3): 8.51–18.55
IC50 (SKOV-3 cells; Homo sapiens, SK-OV-3, 48 h): 1.97 ± 0.07 µM
viability at 10 µM (SKOV-3 cells; Homo sapiens): 26%
Selectivity index (SI), SKOV-3 (SKOV-3 cells): 18.55
IC50 (SKOV-3 cells): 1.98 ± 0.07 µM
IC50 at 48 h [2]: 36.65 ± 0.2 µM
IC50 (A549 cells [3]; [6]): 2.6 ± 0.35 µM
viability at 10 µM (A549 cells [3]; Homo sapiens, A549, 48 h): 27%
Selectivity index (SI), A549 (A549 cells [3]): 14.07
IC50 (A549 cells [3]; read-out: Cytotoxicity (IC50), A549, MTT, 48 h): 2.6 ± 0.351 µM

Compound: COc1cc(C)c(/C=N/NC(=O)c2ccc(Nc3ncnc4c3ncn4C3CCCC3)cc2)cc1C [18b, (E)-4-((9-cyclopentyl-9H-purin-6-yl)amino)-N′-(4-methoxy-2,5-dimethylbenzylidene) benzohydrazide]
viability at 10 µM [1]: 81 to 100%

IC50 (HER2): 0.059 ± 0.002 µM
IC50 (EGFR): 0.08 µM and 0.081 µM
Compound: O=C(N/N=C/c1cccc(-c2ccccc2)c1)c1ccc(Nc2ncnc3nc[nH]c23)cc1 [19a, (E)-4-((7H-purin-6-yl)amino)-N′-([1,1′-biphenyl]-3-ylmethylene)benzohydrazide]
IC50 (SKBR-3 cells; Homo sapiens, SK-BR-3, 48 h): 1.41 µM
Selectivity index (SI), SKBR-3 (SKBR-3 cells): 37.03
IC50 (SKBR-3 cells): 1.41 ± 0.362 µM
percentage of live cells (A549 cells [4]): 62.3%
Apoptosis, Early (A549 cells [4]): 9.72% and 9.72 ± 1.06 %
Apoptosis, Late (A549 cells [4]): 23.13% and 23.13 ± 0.73 %
Necrosis (A549 cells [4]): 4.84 ± 0.34%
viability at 10 µM (A2780 cells): 18%
Cell cycle comment (A549 cells [5]): cell cycle arrest at the G1 phase
DNA Content (%) %G0–G1 (A549 cells [5]): 86.9% and 86.88% and 86.88 ± 0.95 %
DNA Content (%) %G2/M (A549 cells [5]): 3.9% and 3.90 ± 1.22 %
DNA Content (%) %S (A549 cells [5]): 9.2% and 9.21% and 9.21 ± 1.43 %
Cell Cycle Distribution Index (CDI) (A549 cells [5]): 0.15
IC50 (SKOV-3 cells; Homo sapiens, SK-OV-3, 48 h): 2.19 ± 0.16 µM
viability at 10 µM (SKOV-3 cells; Homo sapiens): 43%
Selectivity index (SI), SKOV-3 (SKOV-3 cells): 23.88
IC50 (SKOV-3 cells): 2.19 ± 0.164 µM
IC50 at 48 h [2]: 52.36 ± 0.283 µM
IC50 (A549 cells [3]; [6]): 0.81 ± 0.139 µM
viability at 10 µM (A549 cells [3]; Homo sapiens, A549, 48 h): 39%
Selectivity index (SI), A549 (A549 cells [3]): 64.6

IC50 (HER2): 0.03 µM and 0.033 µM
IC50 (EGFR): 0.07 µM and 0.074 µM
Compound: NS(=O)(=O)c1cc(/C=N/NC(=O)c2ccc(Nc3ncnc4c3ncn4C3CCCC3)cc2)ccc1F [22b, (E)-5-((2-(4-((9-cyclopentyl-9H-purin-6-yl)amino)benzoyl)hydrazineylidene)methyl)-2-fluorobenzenesulfonamide]
IC50 (SKBR-3 cells; Homo sapiens, SK-BR-3, 48 h): 3.8 ± 1.4 µM
Selectivity index (SI), SKBR-3 (SKBR-3 cells): 15.94
IC50 (SKBR-3 cells): 3.8 ± 1.4 µM
percentage of live cells (A549 cells [4]): 72.51%
Apoptosis, Early (A549 cells [4]): 5.92% and 5.92 ± 0.74 %
Apoptosis, Late (A549 cells [4]): 18.21% and 18.21 ± 0.12 %
Necrosis (A549 cells [4]): 3.35 ± 0.49%
viability at 10 µM (A2780 cells): 47%
Cell cycle comment (A549 cells [5]): arrests the cell cycle at the G1 phase; also recorded: Cell cycle arrest@G1
DNA Content (%) %G0–G1 (A549 cells [5]): 77.0% and 77.04% and 77.04 ± 1.85 %
DNA Content (%) %G2/M (A549 cells [5]): 4.4% and 4.35% and 4.35 ± 0.29 %
DNA Content (%) %S (A549 cells [5]): 18.6% and 18.60 ± 2.00 %
Cell Cycle Distribution Index (CDI) (A549 cells [5]): 0.29
IC50 (SKOV-3 cells; Homo sapiens, SK-OV-3, 48 h): 1.54 ± 0.47 µM
viability at 10 µM (SKOV-3 cells; Homo sapiens): 31%
Selectivity index (SI), SKOV-3 (SKOV-3 cells): 39.32
IC50 (SKOV-3 cells): 1.54 ± 0.47 µM
IC50 at 48 h [2]: 60.59 ± 0.329 µM
IC50 (A549 cells [3]; [6]): 3.95 ± 0.615 µM
viability at 10 µM (A549 cells [3]; Homo sapiens, A549, 48 h): 35%
Selectivity index (SI), A549 (A549 cells [3]): 15.34

Compound: O=C(N/N=C/c1cccc2ccccc12)c1ccc(Nc2ncnc3c2ncn3C2CCCC2)cc1 [23b, (E)-4-((9-cyclopentyl-9H-purin-6-yl)amino)-N′-(naphthalen-1-ylmethylene)benzohydrazide]
viability at 10 µM [1]: 81 to 100%
